This test deals with T1, substance P receptor (Homo sapiens, UniProt P25103).
T1 construct: The receptor was prepared from human lymphoblast cells (IM-9); endogenous in cells; host or cells: IM-9 human lymphoblast cells (membrane fraction, 100,000xG precipitate)
As to the kind of experiment: Radioligand receptor binding inhibitory activity (125I-BHSP binding, receptor from IM-9 cells). The note with it: receptor from human lymphoblast cells (IM-9); radioligand 125I-BHSP; 25° C., 30 min. As to the method:
Radioligand Receptor Binding Inhibitory Activity (Binding Inhibitory Activity Using Receptor from Human Lymphoblast Cells (IM-9))
The method of M. A. Cascieri et al., “Molecular Pharmacology, vol. 42, p. 458 (1992)” was modified and used. The receptor was prepared from human lymphoblast cells (IM-9).
IM-9 cells (2×10^5 cells/mL) were inoculated and incubated for 3 days, which was then subjected to centrifugation for 10 min. at 500×G to give cell pellets. The obtained pellets were washed with PBS (GIBCO), disrupted in buffer A (50 mM tris.hydrochloric acid buffer (pH 7.4) containing 120 mM sodium chloride, 5 mM potassium chloride, 2 μg/mL chymostatin, 40 μg/mL bacitracin, 40 μg/mL APMSF, 1 mM ethylenediamine tetra acetic acid) using a polytron.homogenizer [manufactured by Kinematika, Germany], and centrifuged at 100,000×G for 40 min. The precipitated fraction was suspended in buffer B (50 mM Tris-HCl (pH 7.4), 0.02% bovine serum albumin, 2 μg/mL chymostatin, 40 μg/mL bacitracin, 40 μg/mL APMSF, 3 mM MgCl2), which was then cryopreserved (−80° C.) as a receptor specimen.
Buffer B (50 μL) was added to a 96 well microassay plate (CORNING). Thereto was added 50 μL of membrane preparation suspended in buffer B at 250 μg/mL. A measurement buffer (50 μL) containing 2% dimethyl sulfoxide was added to examine total binding; 4 μM unlabeled SP (50 μL) diluted with a measurement buffer containing 2% dimethyl sulfoxide was added to examine non-specific binding; and 50 μL of a test compound (containing 2% dimethyl sulfoxide) diluted with a measurement buffer was added to examine binding inhibitory activity of the test compound. In addition, […] ^125I-BHSP solution (50 μL) was added to each well.
After reaction at 25° C. for 30 min, the cells were rapidly filtered through a GF/C filter plate (PerkinElmer) using a cell harvester (manufactured by PerkinElmer) to quench the reaction, and washed 10 times with 250 μL of 50 mM tris-HCl buffer (pH 7.4) containing 0.02% bovine serum albumin. The GF/C filter plate was dried, MicroScinti 0 (20 μL) was added, and the radioactivity was measured with TopCount (manufactured by PerkinElmer). The GF/C filter plate was immersed in 0.3% polyethylene imine for one day before use.
Specific binding is a value obtained by subtracting nonspecific binding from total binding. The binding inhibitory activity of a test compound is shown by a ratio of a value obtained by subtracting a measurement value with addition of a test compound from the total binding, relative to specific binding.
The antagonistic activity of the compounds obtained in the Examples was determined as a concentration necessary for causing 50% inhibition (IC50 value) under the above-described conditions, and the results shown in Table 34 were obtained.
The radio ligand means substance P labeled with [^125I].

Counter-ions that a name gives are not always drawn.

What is called IC50 is the concentration needed to halve the response being measured. Low values mean greater potency in that assay, high ones weaker potency in that assay.

T1 sequence (P25103 whole entry): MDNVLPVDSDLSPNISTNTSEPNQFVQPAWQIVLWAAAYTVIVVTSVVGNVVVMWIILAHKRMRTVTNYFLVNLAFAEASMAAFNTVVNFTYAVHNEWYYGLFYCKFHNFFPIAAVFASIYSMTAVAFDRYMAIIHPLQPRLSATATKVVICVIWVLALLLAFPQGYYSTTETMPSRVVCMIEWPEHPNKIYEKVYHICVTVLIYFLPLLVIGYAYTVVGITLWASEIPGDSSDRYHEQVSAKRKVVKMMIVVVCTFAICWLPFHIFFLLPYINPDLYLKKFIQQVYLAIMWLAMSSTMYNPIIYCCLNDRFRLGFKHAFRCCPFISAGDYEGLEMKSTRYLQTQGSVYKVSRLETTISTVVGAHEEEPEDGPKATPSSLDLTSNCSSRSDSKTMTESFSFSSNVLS

`Cc1ccccc1[C@H]1CN(C(=O)C2CCN(C(=O)[C@H](C)O)CC2)CC[C@@H]1C(=O)N(C)Cc1cc(C(F)(F)F)cc(C(F)(F)F)c1` [Example 28, (3S,4S)—N-(3,5-bis(trifluoromethyl)benzyl]-1-({1-[(2S)-2-hydroxypropanoyl]piperidin-4-yl}carbonyl)-N-methyl-3-(2-methylphenyl)piperidine-4-carboxamide] returned an IC50 of 0.022 nM. The value for `Cc1cc(F)ccc1[C@@H]1CN(CCC(C)(C)O)CC[C@H]1C(=O)N(C)Cc1cc(C(F)(F)F)cc(C(F)(F)F)c1` (relative stereo) [Example 123, (3R*,4R*)—N-[3,5-bis(trifluoromethyl)benzyl]-3-(4-fluoro-2-methylphenyl)-1-(3-hydroxy-3-methylbutyl)-N-methylpiperidine-4-carboxamide monohydrochloride] was 0.025 nM. For `Cc1cc(F)ccc1[C@H]1CN(S(C)(=O)=O)CC[C@@H]1C(=O)N(C)[C@@H](C)c1cc(C(F)(F)F)cc(C(F)(F)F)c1` [Example 179, (3S,4S)—N-{(1S)-1-[3,5-bis(trifluoromethyl)phenyl]ethyl}-3-(4-fluoro-2-methylphenyl)-N-methyl-1-(methylsulfonyl)piperidine-4-carboxamide] the value was 0.049 nM; for `Cc1cc(F)ccc1[C@H]1CN(C(=O)CN2C(=O)OC(C)(C)C2=O)CC[C@@H]1C(=O)N(C)[C@@H](C)c1cc(C(F)(F)F)cc(C(F)(F)F)c1` [Example 154, (3S,4S)—N-{(1S)-1-[3,5-bis(trifluoromethyl)phenyl]ethyl}-1-[(5,5-dimethyl-2,4-dioxo-1,3-oxazolidin-3-yl)acetyl]-3-(4-fluoro-2-methylphenyl)-N-methylpiperidine-4-carboxamide], 0.097 nM; for `Cc1ccccc1[C@H]1CN(C(=O)C2CCN(C(=O)CO)CC2)CC[C@@H]1C(=O)N(C)Cc1cc(C(F)(F)F)cc(C(F)(F)F)c1` [Example 18, (3S,4S)—N-[3,5-bis(trifluoromethyl)benzyl]-1-[[1-glycoloylpiperidin-4-yl]carbonyl]-N-methyl-3-(2-methylphenyl)piperidine-4-carboxamide], 0.024 nM.

`Cc1cc(F)ccc1[C@@H]1CN(CC(N)=O)CC[C@H]1C(=O)N(Cc1cc(C(F)(F)F)cc(C(F)(F)F)c1)C1CC1` (relative stereo) [Example 169, (3R*,4R*)-1-(2-amino-2-oxoethyl)-N-[3,5-bis(trifluoromethyl)benzyl]-N-cyclopropyl-3-(4-fluoro-2-methylphenyl)piperidine-4-carboxamide monohydrochloride] returned an IC50 of 0.077 nM. The value for `Cc1cc(F)ccc1[C@H]1CN(C(=O)C2CCN(C(=O)CO)CC2)CC[C@@H]1C(=O)N(C)Cc1cc(C(F)(F)F)cc(C(F)(F)F)c1` [Example 149, (3S,4S)—N-[3,5-bis(trifluoromethyl)benzyl]-3-(4-fluoro-2-methylphenyl)-1-[(1-glycoloylpiperidin-4-yl)carbonyl]-N-methylpiperidine-4-carboxamide] was 0.015 nM. Molecule `Cc1cc(F)ccc1[C@@H]1CN(CC(N)=O)CC[C@H]1C(=O)N(C)Cc1cc(C(F)(F)F)cc(C(F)(F)F)c1` (relative stereo) [Example 112, (3R*,4R*)-1-(2-amino-2-oxoethyl)-N-[3,5-bis(trifluoromethyl)benzyl]-3-(4-fluoro-2-methylphenyl)-N-methylpiperidine-4-carboxamide monohydrochloride] registered an IC50 of 0.038 nM. The value for `Cc1cc(F)ccc1[C@@H]1CN(C2CCN(C(=O)C(N)=O)CC2)CC[C@H]1C(=O)N(C)Cc1cc(C(F)(F)F)cc(C(F)(F)F)c1` (relative stereo) [Example 108, (3R*,4R*)-1′-[amino(oxo)acetyl]-N-[3,5-bis(trifluoromethyl)benzyl]-3-(4-fluoro-2-methylphenyl)-N-methyl-1,4′-bipiperidine-4-carboxamide monohydrochloride] was 0.026 nM.

The record behind these values is US20080275085A1, “Piperidine derivative and use thereof” (priority 2007, published 2008).
